The structures appear in SMILES notation. Structures can show the parent of a compound that is named as a salt.

These results are taken from patent publication US7332501B2, “Indol-3-yl-carbonyl-spiro-piperidine derivatives as V1a receptor antagonists” (Hoffmann-La Roche Inc., priority 2005, dated 2008).

T1 sequence (P37288 whole entry): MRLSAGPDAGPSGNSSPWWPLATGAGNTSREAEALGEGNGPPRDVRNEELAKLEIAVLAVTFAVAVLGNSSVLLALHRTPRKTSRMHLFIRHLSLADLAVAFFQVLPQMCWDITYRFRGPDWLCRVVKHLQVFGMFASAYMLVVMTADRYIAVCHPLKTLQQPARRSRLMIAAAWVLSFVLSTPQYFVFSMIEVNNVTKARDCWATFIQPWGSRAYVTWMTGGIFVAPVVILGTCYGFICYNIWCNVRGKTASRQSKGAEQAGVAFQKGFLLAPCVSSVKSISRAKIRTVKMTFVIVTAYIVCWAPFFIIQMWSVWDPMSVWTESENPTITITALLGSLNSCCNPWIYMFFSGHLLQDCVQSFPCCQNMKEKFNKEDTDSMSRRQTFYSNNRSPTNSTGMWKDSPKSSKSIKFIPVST

This experiment concerns the target T1, human V1a receptor (Homo sapiens, UniProt P37288).
T1 construct: expressed in transfected cells; host or cells: HEK293 cells, transiently transfected; cell membranes
In words: human V1a receptor binding (3H-Vasopressin SPA, HEK293 membranes). The conditions noted are these: displacement of 4 nM 3H-Vasopressin, membranes of HEK293 cells transiently transfected with human V1a receptor; Ki from IC50 by Cheng-Prussoff. The method in brief:
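Ki derived by Cheng-Prusoff from IC50 curves normalised to specific binding. Serially diluted compounds (in 2% DMSO) competed with 3H-vasopressin (4 nM working solution) for 1 h at room temperature on SPA beads bearing membranes of transiently transfected HEK293 cells; unlabelled vasopressin defined non-specific counts.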
For the molecule `O=C(Cn1cc(C(=O)N2CCC3(CC2)OCc2ccccc23)c2ccc(Cl)cc21)N1CCOCC1` [Example 205, 1′-{[6-Chloro-1-(2-morpholin-4-yl-2-oxoethyl)-1H-indol-3-yl]carbonyl}-3H-spiro[2-benzofuran-1,4′-piperidine]], the affinity corresponds to a Ki of 1 nM. In the case of `CN(C)C(=O)Cn1cc(C(=O)N2CCC3(CC2)OCc2ccccc23)c2ccc(Cl)cc21` [Example 206, 2-[6-Chloro-3-(1′H,3H-spiro[2-benzofuran-1,4′-piperidin]-1′-ylcarbonyl)-1H-indol-1-yl]-N,N-dimethylacetamide], the Ki is 0.5 nM. Under `CCN(CC)C(=O)Cn1cc(C(=O)N2CCC3(CC2)OCc2ccccc23)c2ccc(Cl)cc21` [Example 207, 2-[6-Chloro-3-(1′H,3H-spiro[2-benzofuran-1,4′-piperidin]-1′-ylcarbonyl)-1H-indol-1-yl]-N,N-diethylacetamide] stands 1.1 nM; under `O=C(c1cn(C(=O)N2CCCCC2)c2cc(Cl)ccc12)N1CCC2(CC1)OCc1ccccc12` [Example 208, 1′-{[6-Chloro-1-(piperidin-1-ylcarbonyl)-1H-indol-3-yl]carbonyl}-3H-spiro[2-benzofuran-1,4′-piperidine]], 2.6 nM; under `CC(C)(C)OC(=O)Cn1cc(C(=O)N2CCC3(CC2)OCc2ccccc23)c2ccc(Cl)cc21` [Example 209, tert-Butyl[6-chloro-3-(1′H,3H-spiro[2-benzofuran-1,4′-piperidin]-1′-ylcarbonyl)-1H-indol-1-yl]acetate], 1 nM. Under `CN(C)CCn1cc(C(=O)N2CCC3(CC2)OCc2ccccc23)c2ccc(Cl)cc21` [Example 210, 2-[6-Chloro-3-(1′H,3H-spiro[2-benzofuran-1,4′-piperidin]-1′-ylcarbonyl)-1H-indol-1-yl]-N,N-dimethylethanamine] stands 1 nM; under `O=C(Cn1cc(C(=O)N2CCC3(CC2)OCc2ccccc23)c2ccc(Cl)cc21)N1CCNCC1` [Example 211, 1′-{[6-Chloro-1-(2-oxo-2-piperazin-1-ylethyl)-1H-indol-3-yl]carbonyl}-3H-spiro[2-benzofuran-1,4′-piperidine]], 0.8 nM; under `CN1CCN(C(=O)Cn2cc(C(=O)N3CCC4(CC3)OCc3ccccc34)c3ccc(Cl)cc32)CC1` [Example 212, 1′-({6-Chloro-1-[2-(4-methylpiperazin-1-yl)-2-oxoethyl]-1H-indol-3-yl}carbonyl)-3H-spiro[2-benzofuran-1,4′-piperidine]], 1.2 nM. Molecule `Cc1cc2c(C(=O)N3CCC4(CC3)OCc3ccccc34)cn(CC(=O)N(C)C)c2cc1Cl` [Example 213, 2-[6-Chloro-5-methyl-3-(1′H,3H-spiro[2-benzofuran-1,4′-piperidin]-1′-ylcarbonyl)-1H-indol-1-yl]-N,N-dimethylacetamide] returned a Ki of 3.3 nM. Under `O=C(c1cn(C(=O)c2cccc(F)c2)c2cc(Cl)ccc12)N1CCC2(CC1)OCc1ccccc12` [Example 214] stands 5.1 nM. The molecule `O=C(c1cn(C(=O)c2ccccc2F)c2cc(Cl)ccc12)N1CCC2(CC1)OCc1ccccc12` [Example 215] yielded a Ki of 8.6 nM. Under `O=C(c1cn(C(=O)c2cc(F)cc(F)c2)c2cc(Cl)ccc12)N1CCC2(CC1)OCc1ccccc12` [Example 216] stands 3.5 nM; under `O=C(c1cn(C(=O)c2cccc(F)c2F)c2cc(Cl)ccc12)N1CCC2(CC1)OCc1ccccc12` [Example 217], 5.8 nM; under `O=C(c1cn(S(=O)(=O)c2cc(F)cc(F)c2)c2cc(Cl)ccc12)N1CCC2(CC1)OCc1ccccc12` [Example 218], 25.1 nM. In the case of `O=C(c1cn(Cc2cc(F)cc(F)c2)c2cc(Cl)ccc12)N1CCC2(CC1)OCc1ccccc12` [Example 219], the inhibitory constant (Ki) worked out at 1.2 nM. As to `O=C(c1cn(Cc2cccc(F)c2)c2cc(Cl)ccc12)N1CCC2(CC1)OCc1ccccc12` [Example 220], affinity was put at a Ki of 1 nM. The result for `O=C(c1cn(-c2cc(F)cc(F)c2)c2cc(Cl)ccc12)N1CCC2(CC1)OCc1ccccc12` [Example 222] reads 4 nM; that for `O=C(c1cn(-c2cccc(F)c2)c2cc(Cl)ccc12)N1CCC2(CC1)OCc1ccccc12` [Example 223], 2.5 nM. `O=C(Cn1cc(C(=O)N2CCC3(CC2)OCc2ccccc23)c2ccc(Cl)cc21)c1ccccc1F` [Example 224, 2-[6-Chloro-3-(1′H,3H-spiro[2-benzofuran-1,4′-piperidin]-1′-ylcarbonyl)-1H-indol-1-yl]-1-(2-fluorophenyl)ethanone]: the affinity, expressed as Ki, was 1.3 nM. Consider `O=C(c1cn(-c2ccccn2)c2cc(Cl)ccc12)N1CCC2(CC1)OCc1ccccc12` [Example 227], for which the inhibition constant Ki came out at 3.8 nM. In turn, `O=C(c1cn(Cc2ccncc2)c2cc(Cl)ccc12)N1CCC2(CC1)OCc1ccccc12` [Example 228] showed a Ki of 1.5 nM. Regarding `O=C(Cn1cc(C(=O)N2CCC3(CC2)OCc2ccccc23)c2ccc(Cl)cc21)c1ccccn1` [Example 229, 2-[6-Chloro-3-(1′H,3H-spiro[2-benzofuran-1,4′-piperidin]-1′-ylcarbonyl)-1H-indol-1-yl]-1-pyridin-2-ylethanone], the affinity corresponds to a Ki of 1.6 nM. In the case of `O=C(c1cn(Cc2cccnc2)c2cc(Cl)ccc12)N1CCC2(CC1)OCc1ccccc12` [Example 230, 1′-{[6-Chloro-1-(pyridin-3-ylmethyl)-1H-indol-3-yl]carbonyl}-3H-spiro[2-benzofuran-1,4′-piperidine]], the affinity corresponds to a Ki of 1.7 nM. Under `O=C(c1cn(Cc2ccccn2)c2cc(Cl)ccc12)N1CCC2(CC1)OCc1ccccc12` [Example 231, 1′-{[6-Chloro-1-(pyridin-2-ylmethyl)-1H-indol-3-yl]carbonyl}-3H-spiro[2-benzofuran-1,4′-piperidine]] stands 1.6 nM; under `O=C(c1cn(CC2CN(Cc3ccccc3)CCO2)c2cc(Cl)ccc12)N1CCC2(CC1)OCc1ccccc12` (stereo not shown) [Example 232, 1′-({1-[(4-Benzylmorpholin-2-yl)methyl]-6-chloro-1H-indol-3-yl}carbonyl)-3H-spiro[2-benzofuran-1,4′-piperidine]], 5 nM. The result for `O=C(c1cn(Cc2cnccn2)c2cc(Cl)ccc12)N1CCC2(CC1)OCc1ccccc12` [Example 234, 1′-{[6-Chloro-1-(pyrazin-2-ylmethyl)-1H-indol-3-yl]carbonyl}-3H-spiro[2-benzofuran-1,4′-piperidine]] reads 1.8 nM. The molecule `O=C(c1cn(Cc2cncnc2)c2cc(Cl)ccc12)N1CCC2(CC1)OCc1ccccc12` [Example 235] returned a Ki of 1.4 nM.

Molecule `Cc1cc(Cn2cc(C(=O)N3CCC4(CC3)OCc3ccccc34)c3ccc(Cl)cc32)no1` [Example 236, 1′-({6-Chloro-1-[(5-methylisoxazol-3-yl)methyl]-1H-indol-3-yl}carbonyl)-3H-spiro[2-benzofuran-1,4′-piperidine]] registered an inhibitory constant (Ki) of 1.7 nM. The molecule `Cc1nc(Cn2cc(C(=O)N3CCC4(CC3)OCc3ccccc34)c3ccc(Cl)cc32)c(C2CC2)o1` [Example 237] had a Ki of 4 nM.

Turning to `Cn1cncc1Cn1cc(C(=O)N2CCC3(CC2)OCc2ccccc23)c2ccc(Cl)cc21` [Example 238], the affinity corresponds to a Ki of 1.9 nM.

`Cc1cc(Cn2cc(C(=O)N3CCC4(CC3)OCc3ccccc34)c3ccc(Cl)cc32)on1` [Example 239, 1′-({6-Chloro-1-[(3-methylisoxazol-5-yl)methyl]-1H-indol-3-yl}carbonyl)-3H-spiro[2-benzofuran-1,4′-piperidine]] had an inhibition constant (Ki) of 2.3 nM. `Cc1cc(Cn2cc(C(=O)N3CCC4(CC3)OCc3ccccc34)c3ccc(Cl)cc32)nn1C` [Example 240] displayed an inhibition constant (Ki) of 2 nM. In turn, `Cc1noc(C)c1Cn1cc(C(=O)N2CCC3(CC2)OCc2ccccc23)c2ccc(Cl)cc21` [Example 241] showed an inhibition constant (Ki) of 1.5 nM. The result for `Cc1nc(Cn2cc(C(=O)N3CCC4(CC3)OCc3ccccc34)c3ccc(Cl)cc32)c(C)o1` [Example 242] reads 2.2 nM. In the case of `O=C(c1cn(CC2(F)COC2)c2cc(Cl)ccc12)N1CCC2(CC1)OCc1ccccc12` [Example 243, 1′-({6-Chloro-1-[(3-fluorooxetan-3-yl)methyl]-1H-indol-3-yl}carbonyl)-3H-spiro[2-benzofuran-1,4′-piperidine]], the Ki was determined as 1.4 nM. Turning to `COCC1(Cn2cc(C(=O)N3CCC4(CC3)OCc3ccccc34)c3ccc(Cl)cc32)CC1` [Example 244, 1′-[(6-Chloro-1-{[1-(methoxymethyl)cyclopropyl]methyl}-1H-indol-3-yl)carbonyl]-3H-spiro[2-benzofuran-1,4′-piperidine]], affinity was put at a Ki of 2.6 nM.

For the molecule `N#CCC1(Cn2cc(C(=O)N3CCC4(CC3)OCc3ccccc34)c3ccc(Cl)cc32)CC1` [Example 245, (1-{[6-Chloro-3-(1′H,3H-spiro[2-benzofuran-1,4′-piperidin]-1′-ylcarbonyl) -1H-indol-1-yl]methyl}cyclopropyl)acetonitrile], the Ki came to 1.7 nM. The result for `O=C(c1cn(CCC2CCOCC2)c2cc(Cl)ccc12)N1CCC2(CC1)OCc1ccccc12` [Example 246, 1′-({6-Chloro-1-[2-(tetrahydro-2H-pyran-4-yl)ethyl]-1H-indol-3-yl}carbonyl)-3H-spiro[2-benzofuran-1,4′-piperidine]] reads 1.9 nM. In turn, `CC(C)(C)OC(=O)N1CCOC(Cn2cc(C(=O)N3CCC4(CC3)OCc3ccccc34)c3ccc(Cl)cc32)C1` (stereo not shown) [Example 247, tert-Butyl 2-{[6-chloro-3-(1′H,3H-spiro[2-benzofuran-1,4′-piperidin]-1′-ylcarbonyl)-1H-indol-1-yl]methyl}morpholine-4-carboxylate] registered a Ki of 2.3 nM.

Molecule `O=C(c1cn(CC2CNCCO2)c2cc(Cl)ccc12)N1CCC2(CC1)OCc1ccccc12` (stereo not shown) [Example 248, 1′-{[6-Chloro-1-(morpholin-2-ylmethyl)-1H-indol-3-yl]carbonyl}-3H-spiro[2-benzofuran-1,4′-piperidine]hydrochloride] came in with an inhibition constant (Ki) of 1.5 nM.
